For the test, the system named is Mycobacterium tuberculosis. Briefly: Antimycobacterial activity against Mycobacterium bovis BCG after 5 days by MTT assay. Format: functional, organism-based. Particulars: variant bovis BCG, 120 h.

Some results are limits rather than exact numbers.

For orientation: IC50 means the concentration that inhibits the measured activity by half. Higher therefore signals weaker potency. Molecule `C#Cc1cn([C@@H]2O[C@H](CO)[C@@H](O)[C@H]2O)c2nc(C)nc(N)c12` had an IC50 of more than 100 µM.
